Drawing on the Deep4Chem optical property database, this text covers absorption maximum for 44 compounds.

Each structure is given as a SMILES string.

The data set is described as follows: solvent given as SMILES.

Regarding `CC[N+](CC)=c1ccc2c(-c3ccccc3C(=O)O)c3c(=O)oc4c5c6c(cc4c3oc-2c1)CCCN6CCC5`, the absorption maximum is recorded as 612 nm (in CCO), 623 nm (in ClC(Cl)Cl) and 612 nm (in O).
Consider `Nc1ccc2ccc3cccc4ccc1c2c34`, for which the absorption maximum reads like this: (in CC#N) 361 nm; (in CCCCOCCCC) 361 nm; (in CO) 357 nm.
Take `CCOC(=O)CN1C(=O)C2=C(c3ccc(N4CCCCC4)cc3)N(CC(=O)OCC)C(=O)C2=C1c1ccc(N2CCCCC2)cc1`: the absorption maximum is, setting by setting: (in CC#N) 523 nm; (in CS(C)=O) 540 nm; (in Cc1ccccc1) 520 nm.
Where the note is “in ClCCl”, `CC(C)(C)C1CCC(=CS/C=C/c2ccc(/C=C/SC=C3CCC(C(C)(C)C)CC3)cc2)CC1` (stereo not drawn) had an absorption maximum of 351 nm.
On to `O=C(O)c1ccc2ccc3cccc4ccc1c2c34`, for which the absorption maximum runs as follows: (in C1CCOC1) 379 nm; (in CC#N) 379 nm; (in CCCCCC) 381 nm; (in CCO) 340 nm; (in CN(C)C=O) 377 nm; (in CO) 339 nm. Moreover, the absorption maximum runs as follows: (in Cc1ccccc1) 382 nm; (in ClCCl) 382 nm.
`c1cc2c3c(cccc3c1)-c1c-2ccc2c1ccc1ccccc12` yielded an absorption maximum (in CCCCCCC) of 405 nm.
`c1cc(-c2ccc3c(c2)CCCO3)ccc1-c1ccc2c(c1)CCCO2`: the absorption maximum (in C1CCCCC1) is given as 295 nm.
With `c1ccc2cc(-n3cnc4ccccc43)ccc2c1`, the absorption maximum runs as follows: (in C1CCCCC1) 275 nm; (in C1CCOC1) 277 nm; (in CC#N) 278 nm; (in CCO) 277 nm; (in CCOC(C)=O) 278 nm; (in CCOCC) 276 nm. Moreover, the absorption maximum runs as follows: (in CO) 275 nm; (in Cc1ccccc1) 275 nm; (in ClC(Cl)Cl) 276 nm.
As to `CCCCN(CCCC)c1ccc(C#Cc2cc(C#Cc3ccc(C#N)cc3)c(C#Cc3ccc(C#N)cc3)cc2C#Cc2ccc(N(CCCC)CCCC)cc2)cc1`, where the note is “in ClCCl”, the absorption maximum is 416 nm.
Consider `C[Si](C)(C)c1ccc(C#N)c2ccccc12`, for which the absorption maximum (in C1CCCCC1) was determined as 315 nm.
For the compound `CSc1sc(C(N)=O)c2nnn(C)c(=O)c12`, the absorption maximum reads like this: (in C1CCOC1) 393 nm; (in CC#N) 394.5 nm; (in CCO) 397 nm; (in CN(C)C=O) 396.5 nm; (in CO) 397 nm; (in CS(C)=O) 398.5 nm.
With `COc1ccc2c3c(OC)c4ccccc4c(OC)c3n(C)c2c1`, the absorption maximum was determined as 392 nm (in C1CCCCC1), 393 nm (in CC#N), 392 nm (in CO) and 396 nm (in ClCCl).
With `CN1c2ccc(C(=O)c3ccccc3)cc2Sc2cc(C(=O)c3ccccc3)ccc21`, the absorption maximum stood at 390 nm (in C1CCCCC1); 402 nm (in C1CCOC1); 407 nm (in CN(C)C=O); 405 nm (in Cc1ccccc1); 407 nm (in ClC(Cl)Cl); 408 nm (in ClCCl).
Compound `Cc1ccc(-c2ccc(/C=C/c3ccc(C#N)cc3)cn2)nc1` had an absorption maximum (in CC#N) of 343 nm.
On the same count and under the same terms, in the case of `Cn1cc(-c2nc3ccccc3nc2/C=C/N2CCCC2)c2ccccc21` it was 440 nm.
Consider `CN1/C(=C/C=C(/C=C/c2sc3ccccc3[n+]2C)c2cccc(C(F)(F)F)c2)Sc2ccccc21`, for which the absorption maximum turned out to be 645 nm (in CCO), 642 nm (in CO), 653 nm (in CS(C)=O) and 639 nm (in O).
In the case of `CC1=CC(C)=[N+]2C1=Cc1cccn1[B-]2(F)F`, the absorption maximum by setting is: (in CCCCCC) 493 nm; (in CO) 493 nm; (in ClCCl) 498 nm.
With `COc1cc(OC)c2cc(C#N)c(=N)oc2c1`, where the note is “in ClCCl”, the absorption maximum is 372 nm.
For the setting “in CC#N”, `CN(C)c1ccc(C#Cc2ccc3ccc(=O)oc3c2)cc1` had an absorption maximum of 333 nm.
In turn, `Brc1cnc(-c2ccncc2)s1` came in with an absorption maximum (in CO) of 306 nm.
As for `CC(C)(C)c1ccc2c(c1)c1cc(C(C)(C)C)ccc1n2-c1cccc(-c2nc(-c3cccc(P(=O)(c4ccccc4)c4ccccc4)c3)nc(-c3cccc(P(=O)(c4ccccc4)c4ccccc4)c3)n2)c1`, the absorption maximum by setting is: (in C1CCOC1) 343 nm; (in CC#N) 343 nm; (in CC(C)=O) 343 nm; (in CN(C)C=O) 343 nm; (in Cc1ccccc1) 343 nm; (in ClC(Cl)Cl) 343 nm. This compound returned an absorption maximum (in ClCCl) of 343 nm.
On to `CCC1(CC)c2ccccc2-c2c1c1c(c3c2C(CC)(CC)c2cc(-c4cccs4)ccc2-3)C(CC)(CC)c2cc(N(c3ccccc3)c3ccccc3)ccc2-1`, for which the absorption maximum (in C1CCOC1) is reported as 355 nm.
`CCCCCCCC[Si](C)(C)c1cccc2ccccc12`: the absorption maximum (in C1CCCCC1) came to 294 nm.
As to `CN(C)c1ccc2nc(-c3ccc(C(=O)OC[C@H](NC(=O)OC(C)(C)C)C(=O)OCc4ccccc4)cc3)sc2c1`, the absorption maximum by setting is: (in C1CCCCC1) 390 nm; (in CC#N) 398 nm; (in CC(C)O) 397 nm; (in CO) 397 nm; (in CS(C)=O) 408 nm; (in ClC(Cl)Cl) 401 nm. For the setting “in c1ccccc1”, this compound came in with an absorption maximum of 397 nm.
Compound `O=c1oc2cccc3c4cccc5ccc6c7cc(F)ccc7c1c(c23)c6c54` yielded an absorption maximum (in C1CCOC1) of 411 nm.
Regarding `Cc1ccc(S(=O)(=O)Nc2c(/C=C/c3ccccc3)sc(-c3ccc(N(C)C)cc3)c2-c2ccsc2)cc1`, where the note is “in CC#N”, the absorption maximum came to 465 nm.
Under “in ClCCl”, `CC1=C(C)C(c2c(C)c(C)c3n2[B-](F)(F)[N+]2=C(C)C(C)=C(C)C2=C3)=[N+]2C1=Cc1c(C)c(C)c(C)n1[B-]2(F)F` registered an absorption maximum of 562 nm.
Regarding `C(#Cc1ccccc1)C(C#Cc1ccccc1)=Cc1ccc(C=C(C#Cc2ccccc2)C#Cc2ccccc2)s1`, the absorption maximum (in ClC(Cl)Cl) is 468 nm.
Compound `CCCCCCc1cc2c3c(c1)c(=C1c4ccccc4Sc4ccccc41)c1cc(CCCCCC)cc4c1N3c1c(cc(CCCCCC)cc1c4=C1c3ccccc3Sc3ccccc31)c2=C1c2ccccc2Sc2ccccc21` showed an absorption maximum (in ClCCl) of 430 nm.
On to `Cc1cc(C)c(C)c(-c2ccc3cc(C)c(=O)oc3c2)c1C`, for which the absorption maximum is, setting by setting: (in C1CCCCC1) 312 nm; (in CC#N) 314 nm; (in CO) 315 nm.
As for `N#Cc1c(-n2nnc3ccc(Cl)cc32)n([C@H]2C[C@H](O)[C@@H](CO)O2)c2ncnc(N)c12`, the absorption maximum (in CO) stood at 276 nm.
With `C1=Cc2ccccc2Cc2ccccc21`, the absorption maximum (in CC#N) worked out at 285 nm and the absorption maximum (in CO) is 285 nm.
With `COc1cc(Br)cc2cc(-c3cc4cc(Br)cc(OC)c4oc3=O)oc12`, the absorption maximum is, setting by setting: (in CC#N) 353 nm; (in CCOC(C)=O) 355 nm; (in CS(C)=O) 359 nm; (in Cc1ccccc1) 360 nm; (in O) 359 nm.
In turn, `c1cc2ccc3[nH]c4ccc5cccc6c(c1)c2c3c4c56` came in with an absorption maximum (in ClC(Cl)Cl) of 425 nm.
Consider `CCn1c2ccccc2c2cc(-c3cc(-c4ccc5c(c4)c4ccccc4n5CC)nc(-c4ccc(OC)cc4)n3)ccc21`, for which the absorption maximum runs as follows: (in C1CCOC1) 365 nm; (in CCOC(C)=O) 362 nm; (in CN(C)C=O) 369 nm; (in Cc1ccccc1) 363 nm; (in ClCCl) 364 nm.
`COCCC1=Cc2nc1ccc1[nH]c(c3nc(ccc4[nH]c2cc4CCOC)C(CCOC)=C3)c(CN(C)C)c1CCOC`: the absorption maximum (in Cc1ccccc1) amounted to 643 nm.
In turn, `C#Cc1ccc(C#Cc2cnc(C#Cc3ccccc3)nc2)cc1` gave an absorption maximum (in C1CCCCC1) of 325 nm.
For `Cc1cc(-c2ccc(C(C)(C)C)cc2)cc(C)[o+]1`, the absorption maximum worked out at 345 nm (in CC#N) and 365 nm (in ClCCl).
In turn, `O=C(c1ccc(-n2c3ccccc3c3ccccc32)cc1)c1ccc(-n2c3ccccc3c3ccccc32)cc1` showed an absorption maximum (in Cc1ccccc1) of 340 nm.
Turning to `CC(C)[Si]1(C(C)C)c2cc(C=C(C#N)C#N)ccc2-c2ccc(N(c3ccccc3)c3ccccc3)cc21`, the absorption maximum is on record as 484 nm (in C1CCCCC1); 461 nm (in CC#N); 467 nm (in CCO); 467 nm (in CCOCC); 466 nm (in CS(C)=O); 481 nm (in ClCCl). Also, the absorption maximum (in c1ccccc1) was 477 nm.
Turning to `C(S/C=C/c1ccc(/C=C/SC=C2CCCCC2)cc1)=C1CCCCC1`, the absorption maximum (in ClCCl) came out at 350 nm.
`COc1ccc(-c2cc(/C=C/c3ccc(N(c4ccccc4)c4ccccc4)cc3)c(C#N)c(N3CCCCC3)c2)cc1` came in with an absorption maximum (in CS(C)=O) of 398 nm.
With `Oc1c(-c2cccs2)cccc1-c1nc2ccccc2s1`, the absorption maximum is 356 nm (in ClCCl) and 346 nm (in O).
Take `CCCCCCCCCCCCCCCC[n+]1ccc(/C=C/c2ccc(N(C)C)cc2)cc1`: the absorption maximum (in C1COCCO1) turned out to be 463 nm; the absorption maximum (in CC(C)=O) is 477 nm; the absorption maximum (in CC(C)O) came out at 481.2 nm; the absorption maximum (in CCCCCC) turned out to be 454.6 nm; the absorption maximum (in CCCCO) stood at 487.1 nm; the absorption maximum (in CCCO) was 485.6 nm. The compound also returned an absorption maximum (in CCO) of 484.9 nm; an absorption maximum (in CN(C)C=O) of 475.3 nm; an absorption maximum (in CO) of 480.2 nm; an absorption maximum (in CS(C)=O) of 479 nm; an absorption maximum (in Cc1ccccc1) of 474.8 nm; an absorption maximum (in ClC(Cl)(Cl)Cl) of 467.2 nm. Moreover, the absorption maximum reads like this: (in ClC(Cl)Cl) 493 nm; (in ClCCl) 515.2 nm; (in c1ccccc1) 476 nm.
